# Paper PMC12058161, “The plant matrix of Artemisia annua L. for the treatment of malaria: Pharmacodynamic and pharmacokinetic studies” (PLOS One, 2025)
# “And” between values parts separate entries of the source, which are not always exact repeats. Equal entries are not always repeated.
# Assays:
# Caco-2 cells = experiment: Cytotoxicity in Caco-2 cells, CCK-8 assay; type: cell-based, human; conditions: for Cell survival rate%: mean; for cck-8 mean (survival fraction): mean of 6
# Description: Caco-2 cells were cultured in 96-well plates for 48 h at a seeding density of 5.0 × 10^3 cells/well before the addition of drugs. […] The final concentration of DMSO was 0.05% (v/v). Experiments were initiated by replacing the culture medium in each well with 100 μL of sample solutions at 37°C in the CO2 incubator. After 48 h of incubation, the medium was removed and 10 μL of CCK-8 reagent in the serum-free medium was added to each well. The plates were then incubated at 37°C for another 2 h. At the end of the incubation period, the plates were quantified by reading the absorbance at 450 nm on a micro-plate multi-detection instrument, SpectraMax iD3 with SoftMax® Pro (Molecular Devices Corporation Sunnyvale, CA, USA). The percentage of cell viability was calculated based on the absorbance measured relative to the absorbance of cells exposed to the negative control.
# [1] = male, Sprague Dawley, rat, in vivo, po, 352 mg/kg
# in vivo = conditions: male, Sprague Dawley, rat, po, 352 mg/kg
# [2] = Stability of the five compounds in SD rat plasma (QC samples, UHPLC-ESI-MS/MS); type: in vitro ADME; conditions: for 3 freeze-thaw cycles mean ± SD / 7 days at -80°C mean ± SD / Room temperature 24h mean ± SD: SD rat plasma QC sample; for stability, Accuracy (measured versus nominal concentration) / stability, mean ± SD (measured concentration): SD rat plasma, n=5
# [3] = Caco-2, concentration 10 μmol/L
# [4] = Caco-2, concentration 20 μmol/L
# [5] = Caco-2, concentration 40 μmol/L
# [6] = Caco-2, concentration 80 μmol/L
# [7] = nominal 20 ng/mL, 3 freeze-thaw cycles
# [8] = nominal 20 ng/mL, 7 days at -80°C
# [9] = nominal 1000 ng/mL, 3 freeze-thaw cycles
# [10] = nominal 1000 ng/mL, 7 days at -80°C
# [11] = nominal 5000 ng/mL, 3 freeze-thaw cycles
# [12] = nominal 5000 ng/mL, 7 days at -80°C
# [13] = nominal 20 ng/mL, Room temperature 24h
# [14] = nominal 1000 ng/mL, Room temperature 24h
# [15] = nominal 5000 ng/mL, Room temperature 24h
smiles,measurement,setting,value
"C[C@@H]1CC[C@H]2[C@@H](C)C(=O)O[C@@H]3O[C@@]4(C)CC[C@@H]1[C@]32O4 [DEART, Deoxyartemisinin]","Cell survival rate%, single replicate","Caco-2 cells; Caco-2, 5μmol/L",87.61% and 87.6% and 80.17% and 81.51% and 81.61% and 87.86%
same,"Cell survival rate%, single replicate","Caco-2 cells; Caco-2, 10μmol/L",81.2% and 82.86% and 82.71% and 83.82% and 87.89% and 87.9%
same,"Cell survival rate%, single replicate","Caco-2 cells; Caco-2, 20μmol/L",86.78% and 81.42% and 81.32% and 82.7% and 86.07% and 80.23%
same,"Cell survival rate%, single replicate","Caco-2 cells; Caco-2, 40μmol/L",83.23% and 82.76% and 82.72% and 82.4% and 81.01% (2×)
same,"Cell survival rate%, single replicate","Caco-2 cells; Caco-2, 80μmol/L",79.21% and 80.38% and 82.01% and 81.79% and 85.15% and 82.39%
same,"cck-8 cell survival as fraction, single replicate","Caco-2 cells; Caco-2, concentration 5 μmol/L",0.8761 and 0.876 and 0.8017 and 0.8151 and 0.8161 and 0.8786
same,Cell survival rate%,"Caco-2 cells; Caco-2, concentration 5 μmol/L",84.39%
same,cck-8 mean (survival fraction),"Caco-2 cells; Caco-2, concentration 5 μmol/L",0.84
same,"cck-8 cell survival as fraction, single replicate",Caco-2 cells; [3],0.812 and 0.8286 and 0.8271 and 0.8382 and 0.8789 and 0.879
same,Cell survival rate%,Caco-2 cells; [3],84.40%
same,cck-8 mean (survival fraction),Caco-2 cells; [3],0.84
same,"cck-8 cell survival as fraction, single replicate",Caco-2 cells; [4],0.8678 and 0.8142 and 0.8132 and 0.827 and 0.8607 and 0.8023
same,Cell survival rate%,Caco-2 cells; [4],83.09%
same,cck-8 mean (survival fraction),Caco-2 cells; [4],0.83
same,"cck-8 cell survival as fraction, single replicate",Caco-2 cells; [5],0.8323 and 0.8276 and 0.8272 and 0.824 and 0.8101
same,Cell survival rate%,Caco-2 cells; [5],82.19%
same,cck-8 mean (survival fraction),Caco-2 cells; [5],0.82
same,"cck-8 cell survival as fraction, single replicate",Caco-2 cells; [6],0.7921 and 0.8038 and 0.8201 and 0.8179 and 0.8515 and 0.8239
same,Cell survival rate%,Caco-2 cells; [6],81.82%
same,cck-8 mean (survival fraction),Caco-2 cells; [6],0.82
same,CL,[1],0.024 ± 0.003 L/h
same,Vz,[1],0.135 ± 0.049 L
same,AUC(0-inf),in vivo,0.848 ± 0.111 µg·h/mL
same,AUC(0-t),in vivo,0.75 ± 0.114 µg·h/mL
same,Cmax,in vivo; Cmax,0.143 ± 0.0373 µg/mL
same,MRT last,in vivo; MRT(0-t),4.04 ± 0.427 h
same,MRT inf,in vivo; MRT(0-∞),6.12 ± 1.34 h
same,half-life,in vivo; t1/2,3.94 ± 1.57 h
same,"Stability in plasma, measured concentration (mean ± SD)","[2]; 3 freeze-thaw cycles, QC concentration 20 ng/mL",21.4 ± 1.03 ng/mL
same,"Stability in plasma, measured concentration (mean ± SD)","[2]; 3 freeze-thaw cycles, QC concentration 1000 ng/mL",1069 ± 21.8 ng/mL
same,"Stability in plasma, measured concentration (mean ± SD)","[2]; 3 freeze-thaw cycles, QC concentration 5000 ng/mL",4765 ± 110 ng/mL
same,"Stability in plasma, measured concentration (mean ± SD)","[2]; 7 days at -80°C, QC concentration 20 ng/mL",21.1 ± 1.73 ng/mL
same,"Stability in plasma, measured concentration (mean ± SD)","[2]; 7 days at -80°C, QC concentration 1000 ng/mL",1069 ± 21.6 ng/mL
same,"Stability in plasma, measured concentration (mean ± SD)","[2]; 7 days at -80°C, QC concentration 5000 ng/mL",4705 ± 267 ng/mL
same,"Stability, measured concentration, mean ± SD","[2]; QC sample 20 ng/mL, 3 freeze-thaw cycles",21.4 ± 1.03 ng/mL
same,"Stability, measured concentration, mean ± SD","[2]; QC sample 20 ng/mL, 7 days at -80°C",21.1 ± 1.73 ng/mL
same,"Stability, measured concentration, mean ± SD","[2]; QC sample 20 ng/mL, Room temperature 24h",21.6 ± 0.78 ng/mL
same,"Stability, measured concentration, mean ± SD","[2]; QC sample 1000 ng/mL, 3 freeze-thaw cycles",1069 ± 21.8 ng/mL
same,"Stability, measured concentration, mean ± SD","[2]; QC sample 1000 ng/mL, 7 days at -80°C",1069 ± 21.6 ng/mL
same,"Stability, measured concentration, mean ± SD","[2]; QC sample 1000 ng/mL, Room temperature 24h",1093 ± 39.5 ng/mL
same,"Stability, measured concentration, mean ± SD","[2]; QC sample 5000 ng/mL, 3 freeze-thaw cycles",4765 ± 110 ng/mL
same,"Stability, measured concentration, mean ± SD","[2]; QC sample 5000 ng/mL, 7 days at -80°C",4705 ± 267 ng/mL
same,"Stability, measured concentration, mean ± SD","[2]; QC sample 5000 ng/mL, Room temperature 24h",5205 ± 494 ng/mL
same,"Stability in plasma, measured concentration (mean ± SD)","[2]; Room temperature 24h, QC concentration 20 ng/mL",21.6 ± 0.78 ng/mL
same,"Stability in plasma, measured concentration (mean ± SD)","[2]; Room temperature 24h, QC concentration 1000 ng/mL",1093 ± 39.5 ng/mL
same,"Stability in plasma, measured concentration (mean ± SD)","[2]; Room temperature 24h, QC concentration 5000 ng/mL",5205 ± 494 ng/mL
same,3 freeze-thaw cycles mean ± SD,[2]; [7],21.4 ± 1.03 ng/mL and 21.3622 ng/mL
same,7 days at -80°C mean ± SD,[2]; [8],21.1 ± 1.73 ng/mL and 21.1491 ng/mL
same,Room temperature 24h mean ± SD,[2]; nominal 20 ng/mL,21.6 ± 0.78 ng/mL and 21.6437 ng/mL
same,3 freeze-thaw cycles mean ± SD,[2]; [9],1069 ± 21.8 ng/mL and 1069.41 ng/mL
same,7 days at -80°C mean ± SD,[2]; [10],1069 ± 21.6 ng/mL and 1068.61 ng/mL
same,Room temperature 24h mean ± SD,[2]; nominal 1000 ng/mL,1093 ng/mL and 1093 ± 39.5 ng/mL
same,3 freeze-thaw cycles mean ± SD,[2]; [11],4765 ± 110 ng/mL and 4765.19 ng/mL
same,7 days at -80°C mean ± SD,[2]; [12],4705 ± 267 ng/mL and 4704.92 ng/mL
same,Room temperature 24h mean ± SD,[2]; nominal 5000 ng/mL,5205.17 ng/mL and 5205 ± 494 ng/mL
same,"stability, Accuracy (measured versus nominal concentration)",[2]; [7],106.81%
same,"stability, mean ± SD (measured concentration)",[2]; [7],21.4 ± 1.03 ng/mL
same,"stability, Accuracy (measured versus nominal concentration)",[2]; [8],105.75%
same,"stability, mean ± SD (measured concentration)",[2]; [8],21.1 ± 1.73 ng/mL
same,"stability, Accuracy (measured versus nominal concentration)",[2]; [13],108.22%
same,"stability, mean ± SD (measured concentration)",[2]; [13],21.6 ± 0.78 ng/mL
same,"stability, Accuracy (measured versus nominal concentration)",[2]; [9],106.94%
same,"stability, mean ± SD (measured concentration)",[2]; [9],1069 ± 21.8 ng/mL
same,"stability, Accuracy (measured versus nominal concentration)",[2]; [10],106.86%
same,"stability, mean ± SD (measured concentration)",[2]; [10],1069 ± 21.6 ng/mL
same,"stability, Accuracy (measured versus nominal concentration)",[2]; [14],109.30%
same,"stability, mean ± SD (measured concentration)",[2]; [14],1093 ± 39.5 ng/mL
same,"stability, Accuracy (measured versus nominal concentration)",[2]; [11],95.30%
same,"stability, mean ± SD (measured concentration)",[2]; [11],4765 ± 110 ng/mL
same,"stability, Accuracy (measured versus nominal concentration)",[2]; [12],94.10%
same,"stability, mean ± SD (measured concentration)",[2]; [12],4705 ± 267 ng/mL
same,"stability, Accuracy (measured versus nominal concentration)",[2]; [15],104.10%
same,"stability, mean ± SD (measured concentration)",[2]; [15],5205 ± 494 ng/mL
